Tests used:
[1] = refractive index (Na D-line) (dimensionless); xn = mol fraction of the nth substance listed; conditions: 101 kPa, Liquid, Standard Abbe refractometry
[2] = xn = mol fraction of the nth substance listed; conditions: 101 kPa, Liquid, Vibrating tube method

CCCCn1cc[n+](C)c1.NCC(=O)[O-] [1-butyl-3-methylimidazolium glycinate] + CC(C)O
Conditions	mass density, [2] [kg/m3]	refractive index, [1]
298.15 K, x1 = 0.0965	877.6	1.405
298.15 K, x1 = 0.1992	957.8	1.43
298.15 K, x1 = 0.3059	1024.4	1.451
298.15 K, x1 = 0.3977	1071.9	1.466
298.15 K, x1 = 0.5115	1121.6	1.48
298.15 K, x1 = 0.5868	1149.9	1.488
298.15 K, x1 = 0.7052	1188.4	1.499
298.15 K, x1 = 0.8117	1217.5	1.509
298.15 K, x1 = 0.8775	–	1.514
303.15 K, x1 = 0.0965	870.7	1.404
303.15 K, x1 = 0.1992	951.4	1.429
303.15 K, x1 = 0.3059	1018.6	1.45
303.15 K, x1 = 0.3977	1066.5	1.464
303.15 K, x1 = 0.5115	1116.8	1.478
303.15 K, x1 = 0.5868	1145.4	1.487
303.15 K, x1 = 0.7052	1184.3	1.499
303.15 K, x1 = 0.8117	1213.9	1.508
303.15 K, x1 = 0.8775	–	1.513
308.15 K, x1 = 0.0965	863	1.403
308.15 K, x1 = 0.1992	944.2	1.429
308.15 K, x1 = 0.3059	1012	1.449
308.15 K, x1 = 0.3977	1060.6	1.463
308.15 K, x1 = 0.5115	1111.4	1.477
308.15 K, x1 = 0.5868	1140.5	1.486
308.15 K, x1 = 0.7052	1180	1.497
308.15 K, x1 = 0.8117	1210	1.505
308.15 K, x1 = 0.8775	1226.4	1.51
313.15 K, x1 = 0.0965	854.7	1.402
313.15 K, x1 = 0.1992	936.6	1.427
313.15 K, x1 = 0.3059	1005	1.449
313.15 K, x1 = 0.3977	1054.1	1.462
313.15 K, x1 = 0.5115	1105.8	1.477
313.15 K, x1 = 0.5868	1135.3	1.485
313.15 K, x1 = 0.7052	1175.4	1.497
313.15 K, x1 = 0.8117	1205.9	1.506
313.15 K, x1 = 0.8775	–	1.511

CCCCn1cc[n+](C)c1.NCC(=O)[O-] [1-butyl-3-methylimidazolium glycinate] + CCCCO
Conditions	mass density, [2] [kg/m3]	refractive index, [1]
298.15 K, x1 = 0.0972	885.2	1.418
298.15 K, x1 = 0.2125	962.5	1.438
298.15 K, x1 = 0.3041	1014.1	1.454
298.15 K, x1 = 0.3849	1054.3	1.465
298.15 K, x1 = 0.4929	1101.4	1.478
298.15 K, x1 = 0.6103	1146.3	1.49
298.15 K, x1 = 0.6923	1174.2	1.497
298.15 K, x1 = 0.8037	1208.4	1.506
298.15 K, x1 = 0.9129	–	1.514
303.15 K, x1 = 0.0972	881.7	1.417
303.15 K, x1 = 0.2125	959.1	1.438
303.15 K, x1 = 0.3041	1010.9	1.452
303.15 K, x1 = 0.3849	1051.2	1.463
303.15 K, x1 = 0.4929	1098.4	1.476
303.15 K, x1 = 0.6103	1143.3	1.488
303.15 K, x1 = 0.6923	1171.2	1.496
303.15 K, x1 = 0.8037	1205.4	1.505
303.15 K, x1 = 0.9129	–	1.513
308.15 K, x1 = 0.0972	878	1.415
308.15 K, x1 = 0.2125	955	1.437
308.15 K, x1 = 0.3041	1007	1.45
308.15 K, x1 = 0.3849	1048	1.461
308.15 K, x1 = 0.4929	1095	1.474
308.15 K, x1 = 0.6103	1140	1.487
308.15 K, x1 = 0.6923	1168	1.495
308.15 K, x1 = 0.8037	1202	1.504
308.15 K, x1 = 0.9129	1232	1.512
313.15 K, x1 = 0.0972	874	1.413
313.15 K, x1 = 0.2125	952	1.435
313.15 K, x1 = 0.3041	1004	1.45
313.15 K, x1 = 0.3849	1044	1.461
313.15 K, x1 = 0.4929	1092	1.474
313.15 K, x1 = 0.6103	1137	1.486
313.15 K, x1 = 0.6923	1165	1.495
313.15 K, x1 = 0.8037	1199	1.503
313.15 K, x1 = 0.9129	–	1.51
